Assay results published in patent US8044052B2, “Biaryl ether urea compounds” (Pfizer Inc., priority 2006, dated 2011).
Counter-ions that a name gives are not always drawn.

Target: T1, Human FAAH (Homo sapiens, UniProt O00519)
T1 construct: made in house
T1 sequence (O00519 1-579): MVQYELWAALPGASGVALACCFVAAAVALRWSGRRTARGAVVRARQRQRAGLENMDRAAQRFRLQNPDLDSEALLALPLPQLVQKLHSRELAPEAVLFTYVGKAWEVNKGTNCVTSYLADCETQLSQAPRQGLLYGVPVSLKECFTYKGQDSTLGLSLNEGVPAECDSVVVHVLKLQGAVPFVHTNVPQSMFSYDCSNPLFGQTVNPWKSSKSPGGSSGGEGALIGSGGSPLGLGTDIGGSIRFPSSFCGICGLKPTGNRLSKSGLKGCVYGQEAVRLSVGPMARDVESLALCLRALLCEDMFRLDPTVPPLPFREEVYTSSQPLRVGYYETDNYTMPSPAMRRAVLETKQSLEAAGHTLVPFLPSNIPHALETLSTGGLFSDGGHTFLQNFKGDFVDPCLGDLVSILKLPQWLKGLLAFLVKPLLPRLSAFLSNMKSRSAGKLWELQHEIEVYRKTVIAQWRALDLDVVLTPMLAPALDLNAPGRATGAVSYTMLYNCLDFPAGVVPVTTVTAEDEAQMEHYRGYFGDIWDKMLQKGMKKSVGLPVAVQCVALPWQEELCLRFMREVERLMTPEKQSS
Test: FAAH assay (glutamate dehydrogenase-coupled, oleamide substrate, absorbance at 340 nm)
Assay type: biochemical
Details: irreversible inhibition, 1-4 nM FAAH, pH 7.4, 30° C., 90 min, read-out: hFAAH kinact/Ki
Experimental: The FAAH assay was carried out in 384-well clear polystyrene plates in a total volume of 50 μl per well. All percents are by volume. To each well, was placed the reaction mixture (40 μl) containing 1-4 nM FAAH, 50 mM NaPi, pH 7.4, 3 mM α-ketoglutarate, 0.15 mM NADH, 7.5 U/ml glutamate dehydrogenase, 2 mM ADP, 1 mM EDTA, and 0.1% Triton X-100 (The concentration shown for each component is the final concentration in the assay). […] This was immediately followed by the addition of 5 μl oleamide (500 μM) dissolved in 75% EtOH/25% DMSO and the reaction mixture was mixed for 1.5 min. The final concentrations of DMSO and EtOH in the assay were each 7.5%.
Initial velocity data (V) were obtained from the slopes of the initial progressive curves. They were plotted as a function of substrate concentration and fit to the Michaelis-Menten equation (1) using Prism (GraphPad Software, Inc., San Diego, Calif.) software to obtain Km and Vmax values.
To obtain potencies of irreversible inhibitors, progressive curves consistent with first order inhibition kinetics (two-step irreversible inhibition mechanism) were fit to equation (2) by nonlinear least squares regressions to determine kobs values at each inhibitor concentration, where [P]t is the absorbance at time t, V0 is a constant related to the steady state rate of the uninhibited reaction, and kobs is the first order rate constant for enzyme inactivation. The inhibitor dissociation constant (Ki) and the first order rate
[formula] constant of enzyme inactivation at infinite inhibitor concentration (kinact) were then obtained by fitting the kobs vs. [I] curves to equation (3).

Question: With `O=C(Nc1cccnc1)N1CCC(=Cc2cc(Br)cc(Oc3ccc(C(F)(F)F)cn3)c2)CC1` [Example 62, 4-(3-bromo-5-(5-(trifluoromethyl)pyridin-2-yloxy)benzylidene)-N-(pyridin-3-yl)piperidine-1-carboxamide] as the molecule, how does the kinact/KI read?
Answer: 1370 M⁻¹ s⁻¹

Question: How did the kinact/KI turn out when `O=C(Nc1cccnn1)N1CCC(=Cc2cc(Br)cc(Oc3ccc(C(F)(F)F)cn3)c2)CC1` [Example 63, 4-(3-bromo-5-(5-(trifluoromethyl)pyridin-2-yloxy)benzylidene)-N-(pyridazin-3-yl)piperidine-1-carboxamide] was run?
Answer: 2530 M⁻¹ s⁻¹

Question: How did the kinact/KI turn out when `O=C(Nc1cccnn1)N1CCC(=Cc2cc(Oc3ccc(C(F)(F)F)cn3)cc(C3CC3)c2)CC1` [Example 64, 4-(3-cyclopropyl-5-(5-(trifluoromethyl)pyridin-2-yloxy)benzylidene)-N-(pyridazin-3-yl)piperidine-1-carboxamide] was run?
Answer: 417 M⁻¹ s⁻¹

Question: For `O=C(Nc1cccnc1)N1CCC(=Cc2cc(F)cc(Oc3ccc(C(F)(F)F)cn3)c2)CC1` [Example 65, 4-(3-fluoro-5-(5-(trifluoromethyl)pyridin-2-yloxy)benzylidene)-N-(pyridin-3-yl)piperidine-1-carboxamide], which kinact/KI is on record?
Answer: 6710 M⁻¹ s⁻¹

Question: How did the kinact/KI turn out when `O=C(Nc1cccnc1)N1CCC(=C(Br)c2cccc(Oc3ccc(C(F)(F)F)cn3)c2)CC1` [Example 66, 4-(bromo(3-(5-(trifluoromethyl)pyridin-2-yloxy)phenyl)methylene)-N-(pyridin-3-yl)piperidine-1-carboxamide] was run?
Answer: 1560 M⁻¹ s⁻¹

Question: How did the kinact/KI turn out when `CC(=C1CCN(C(=O)Nc2cccnc2)CC1)c1cccc(Oc2ccc(C(F)(F)F)cn2)c1` [Example 67, N-(pyridin-3-yl)-4-(1-(3-(5-(trifluoromethyl)pyridin-2-yloxy)phenyl)ethylidene)piperidine-1-carboxamide] was run?
Answer: 5980 M⁻¹ s⁻¹

Question: With `O=C(Nc1cccnc1)N1CCC(=C(c2ccccc2)c2cccc(Oc3ccc(C(F)(F)F)cn3)c2)CC1` [Example 68, 4-(phenyl(3-(5-(trifluoromethyl)pyridin-2-yloxy)phenyl)methylene)-N-(pyridin-3-yl)piperidine-1-carboxamide] as the molecule, how does the kinact/KI read?
Answer: 206 M⁻¹ s⁻¹

Question: How did the kinact/KI turn out when `O=C(Nc1cccnc1)N1CCC(=C(F)c2cccc(Oc3ccc(C(F)(F)F)cn3)c2)CC1` [Example 69, 4-(fluoro(3-(5-(trifluoromethyl)pyridin-2-yloxy)phenyl)methylene)-N-(pyridin-3-yl)piperidine-1-carboxamide] was run?
Answer: 2300 M⁻¹ s⁻¹

Question: How did the kinact/KI turn out when `COc1ccc(NC(=O)N2CCC(=C(F)c3cccc(Oc4ccc(C(F)(F)F)cn4)c3)CC2)cn1` [Example 71, 4-(fluoro(3-(5-(trifluoromethyl)pyridin-2-yloxy)phenyl)methylene)-N-(6-methoxypyridin-3-yl)piperidine-1-carboxamide] was run?
Answer: 777 M⁻¹ s⁻¹

Question: For `Cc1ccnc(Oc2cccc(C=C3CCN(C(=O)Nc4cccnc4)CC3)c2)c1` [Example 72, 4-{3-[(4-methylpyridin-2-yl)oxy]benzylidene}-N-pyridin-3-ylpiperidine-1-carboxamide], which kinact/KI is on record?
Answer: 681 M⁻¹ s⁻¹

Question: How did the kinact/KI turn out when `Cc1ccnc(Oc2cccc(C=C3CCN(C(=O)Nc4cccnn4)CC3)c2)c1` [Example 73, 4-{3-[(4-methylpyridin-2-yl)oxy]benzylidene}-N-pyridazin-3-ylpiperidine-1-carboxamide] was run?
Answer: 963 M⁻¹ s⁻¹

Question: With `O=C(Nc1cnoc1)N1CCC(=Cc2cccc(Oc3ccc(C(F)(F)F)cn3)c2)CC1` [Example 75, N-isoxazol-4-yl-4-(3-{[5-(trifluoromethyl)pyridin-2-yl]oxy}benzylidene)piperidine-1-carboxamide] as the molecule, how does the kinact/KI read?
Answer: 3620 M⁻¹ s⁻¹

Question: Which kinact/KI does the source give for `Cn1ccc(NC(=O)N2CCC(=Cc3cccc(Oc4ccc(C(F)(F)F)cn4)c3)CC2)n1` [Example 77, N-(1-methyl-1H-pyrazol-3-yl)-4-(3-{[5-(trifluoromethyl)pyridin-2-yl]oxy}benzylidene)piperidine-1-carboxamide] here?
Answer: 339 M⁻¹ s⁻¹

Question: For `Cn1ncc(NC(=O)N2CCC(=Cc3cccc(Oc4ccc(C(F)(F)F)cn4)c3)CC2)n1` [Example 78, N-(2-methyl-2H-1,2,3-triazol-4-yl)-4-(3-{[5-(trifluoromethyl)pyridin-2-yl]oxy}benzylidene)piperidine-1-carboxamide], which kinact/KI is on record?
Answer: 2100 M⁻¹ s⁻¹

Question: For `O=C(Nc1ncccc1O)N1CCC(=Cc2cccc(Oc3ccc(C(F)(F)F)cn3)c2)CC1` [Example 79, N-(3-hydroxypyridin-2-yl)-4-(3-{[5-(trifluoromethyl)pyridin-2-yl]oxy}benzylidene)piperidine-1-carboxamide trifluoroacetate], which kinact/KI is on record?
Answer: 4880 M⁻¹ s⁻¹

Question: How did the kinact/KI turn out when `CCc1cc(NC(=O)N2CCC(=Cc3cccc(Oc4ccc(C(F)(F)F)cn4)c3)CC2)[nH]n1` [Example 80, N-(3-ethyl-1H-pyrazol-5-yl)-4-(3-{[5-(trifluoromethyl)pyridin-2-yl]oxy}benzylidene)piperidine-1-carboxamide trifluoroacetate] was run?
Answer: 353 M⁻¹ s⁻¹

Question: `CCn1ncnc1NC(=O)N1CCC(=Cc2cccc(Oc3ccc(C(F)(F)F)cn3)c2)CC1` [Example 81, N-(1-ethyl-1H-1,2,4-triazol-5-yl)-4-(3-{[5-(trifluoromethyl)pyridin-2-yl]oxy}benzylidene)piperidine-1-carboxamide trifluoroacetate] was tested. Which kinact/KI did it give?
Answer: 1010 M⁻¹ s⁻¹

Question: Which kinact/KI does the source give for `O=C(Nc1cccc(CO)c1)N1CCC(=Cc2cccc(Oc3ccc(C(F)(F)F)cn3)c2)CC1` [Example 82, N-[3-(hydroxymethyl)phenyl]-4-(3-{[5-(trifluoromethyl)pyridin-2-yl]oxy}benzylidene)piperidine-1-carboxamide] here?
Answer: 979 M⁻¹ s⁻¹

Question: With `O=C(Nc1cc(CO)ccn1)N1CCC(=Cc2cccc(Oc3ccc(C(F)(F)F)cn3)c2)CC1` [Example 83, N-[4-(hydroxymethyl)pyridin-2-yl]-4-(3-{[5-(trifluoromethyl)pyridin-2-yl]oxy}benzylidene)piperidine-1-carboxamide trifluoroacetate] as the molecule, how does the kinact/KI read?
Answer: 356 M⁻¹ s⁻¹

Question: How did the kinact/KI turn out when `O=C(Nc1ccc(Cl)nn1)N1CCC(=Cc2cccc(Oc3ccc(C(F)(F)F)cn3)c2)CC1` [Example 84, N-(6-chloropyridazin-3-yl)-4-(3-{[5-(trifluoromethyl)pyridin-2-yl]oxy}benzylidene)piperidine-1-carboxamide] was run?
Answer: 5590 M⁻¹ s⁻¹

Question: With `O=C(Nc1cccnn1)N1CCC(=Cc2cccc(Oc3ccc(N4CCCC4)cn3)c2)CC1` [Example 85, 4-(3-(5-(pyrrolidin-1-yl)pyridin-2-yloxy)benzylidene)-N-(pyridazin-3-yl)piperidine-1-carboxamide] as the molecule, how does the kinact/KI read?
Answer: 1540 M⁻¹ s⁻¹

Question: How did the kinact/KI turn out when `O=C(Nc1cccnc1)N1CCC(=Cc2cccc(Oc3ccc(N4CCCC4)cn3)c2)CC1` [Example 86, 4-(3-(5-(pyrrolidin-1-yl)pyridin-2-yloxy)benzylidene)-N-(pyridin-3-yl)piperidine-1-carboxamide] was run?
Answer: 856 M⁻¹ s⁻¹

Question: For `O=C(Nc1cccnn1)N1CCC(=Cc2cccc(Oc3ccc(N4CCC4)cn3)c2)CC1` [Example 87, 4-(3-(5-(azetidin-1-yl)pyridin-2-yloxy)benzylidene)-N-(pyridazin-3-yl)piperidine-1-carboxamide], which kinact/KI is on record?
Answer: 1840 M⁻¹ s⁻¹

Question: How did the kinact/KI turn out when `O=C(Nc1cccnc1)N1CCC(=Cc2cccc(Oc3ccc(N4CCC4)cn3)c2)CC1` [Example 88, 4-(3-(5-(azetidin-1-yl)pyridin-2-yloxy)benzylidene)-N-(pyridin-3-yl)piperidine-1-carboxamide] was run?
Answer: 3580 M⁻¹ s⁻¹

Question: For `C#CCCCOc1ccc(Oc2cccc(C=C3CCN(C(=O)Nc4cccnc4)CC3)c2)nc1` [Example 89, 4-(3-(5-(pent-4-ynyloxy)pyridin-2-yloxy)benzylidene)-N-(pyridin-3-yl)piperidine-1-carboxamide], which kinact/KI is on record?
Answer: 6450 M⁻¹ s⁻¹
